The values below come from patent publication US20210177828A1, “TAM FAMILY KINASE /AND CSF1R KINASE INHIBITOR AND USE THEREOF” (Nanjing Transthera Biosciences Co., Ltd., priority 2018, published 2021).

One test deals with T1, Tyro-3 (h) (Homo sapiens, UniProt Q06418).
T1 sequence (Q06418 41-890): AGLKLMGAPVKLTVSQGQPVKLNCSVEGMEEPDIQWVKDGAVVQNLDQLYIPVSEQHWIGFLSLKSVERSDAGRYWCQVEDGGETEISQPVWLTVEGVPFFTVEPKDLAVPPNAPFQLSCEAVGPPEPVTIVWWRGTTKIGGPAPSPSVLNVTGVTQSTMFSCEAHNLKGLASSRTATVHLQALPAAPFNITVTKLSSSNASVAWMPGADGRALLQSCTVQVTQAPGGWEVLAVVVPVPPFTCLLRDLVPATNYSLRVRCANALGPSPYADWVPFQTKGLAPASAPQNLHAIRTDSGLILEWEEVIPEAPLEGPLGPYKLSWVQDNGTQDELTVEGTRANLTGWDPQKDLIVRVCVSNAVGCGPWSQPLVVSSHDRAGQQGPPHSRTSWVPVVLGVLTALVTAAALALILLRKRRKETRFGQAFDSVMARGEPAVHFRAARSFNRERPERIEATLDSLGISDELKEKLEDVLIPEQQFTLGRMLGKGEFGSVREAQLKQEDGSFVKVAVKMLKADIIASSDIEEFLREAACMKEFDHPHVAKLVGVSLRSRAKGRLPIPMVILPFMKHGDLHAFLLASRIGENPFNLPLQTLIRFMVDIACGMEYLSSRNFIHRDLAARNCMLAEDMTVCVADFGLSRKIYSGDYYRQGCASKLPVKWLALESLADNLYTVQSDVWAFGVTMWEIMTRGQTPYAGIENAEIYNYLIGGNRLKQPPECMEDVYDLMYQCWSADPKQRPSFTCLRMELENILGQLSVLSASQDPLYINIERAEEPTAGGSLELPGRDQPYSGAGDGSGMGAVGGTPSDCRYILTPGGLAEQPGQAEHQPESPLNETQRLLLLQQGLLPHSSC
Nature of the test: Enzymatic activity assay, Tyro-3 (h), [γ-33P]-ATP filter assay. Type of test: biochemical. The conditions noted are these: 10 μM ATP, 40 min room temperature; read-out: Inhibitory activity IC50 Tyro-3(h). The method, then:
Compounds were each dissolved in 100% DMSO to prepare stock solutions with a maximum concentration of 500 μM.
Compound working solutions (50×) were prepared by diluting a compound stock solution to a final concentration of 500, 150, 50, 15, 5, 1.5, 0.5, 0.15 and 0.05 μM.
An enzyme solution with a final concentration of 38 nM was prepared by dissolving Tyro3 (h) enzyme in a mixture of 8 mM MOPS (pH 7.0), 0.2 mM EDTA, 1 mM MnCl2 and 250 μM KVEKIGEGTYGVVYK. A Mg/ATP mixture of 10 mM magnesium acetate and 10 μM [γ-^33P]-ATP was used to activate the enzymatic reaction.
A compound working solution was added to a 384-well plate, with final concentrations of 10,000, 3,000, 1,000, 300, 100, 30, 10, 3 and 1 nM, and then different enzymatic reaction solutions prepared according to the above conditions were added. The reaction solutions were incubated at room temperature for 40 min, and then 0.5% phosphoric acid solutions were added to terminate the reaction. 10 μL of the reaction solution was added dropwise to P30 filter paper, washed 4 times with a 0.425% phosphoric acid solution and once with methanol, and then placed in a scintillation counter for detection. Gray analysis was performed on the results with Image J software, and IC50 values were calculated with GraphPad 5.0 software.

Another test deals with T2, MDA-MB-231 cell pAxl (Homo sapiens, UniProt P30530).
T2 construct: endogenous in cells; host or cells: MDA-MB-231
T2 sequence (P30530 26-894): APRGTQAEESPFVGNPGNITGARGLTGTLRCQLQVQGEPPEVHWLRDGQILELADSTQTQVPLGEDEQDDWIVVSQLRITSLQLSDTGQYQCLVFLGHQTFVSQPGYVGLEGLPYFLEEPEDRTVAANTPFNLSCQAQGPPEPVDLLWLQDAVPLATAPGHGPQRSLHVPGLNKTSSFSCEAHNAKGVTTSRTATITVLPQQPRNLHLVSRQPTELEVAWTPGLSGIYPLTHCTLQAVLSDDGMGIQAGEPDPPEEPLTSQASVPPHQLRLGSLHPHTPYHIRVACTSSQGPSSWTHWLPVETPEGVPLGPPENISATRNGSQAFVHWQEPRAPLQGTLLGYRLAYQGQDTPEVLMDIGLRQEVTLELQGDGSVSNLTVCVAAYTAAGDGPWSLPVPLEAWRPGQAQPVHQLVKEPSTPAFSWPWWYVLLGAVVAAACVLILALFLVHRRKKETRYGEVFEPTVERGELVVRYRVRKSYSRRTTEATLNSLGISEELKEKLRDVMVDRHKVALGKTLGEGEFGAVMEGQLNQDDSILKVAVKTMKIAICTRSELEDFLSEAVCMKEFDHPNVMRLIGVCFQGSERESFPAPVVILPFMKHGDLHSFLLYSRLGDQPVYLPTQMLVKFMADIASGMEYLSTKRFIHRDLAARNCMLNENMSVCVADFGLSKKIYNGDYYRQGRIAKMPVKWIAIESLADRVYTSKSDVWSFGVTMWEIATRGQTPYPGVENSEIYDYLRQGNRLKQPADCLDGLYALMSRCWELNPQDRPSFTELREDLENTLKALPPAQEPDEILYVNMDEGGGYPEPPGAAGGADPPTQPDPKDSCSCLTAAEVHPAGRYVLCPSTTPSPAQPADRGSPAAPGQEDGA
Nature of the test: Inhibitory activity on cell pAxl, MDA-MB-231 cells, hGAS6 stimulation, Western Blot. Type of test: cell-based. The conditions noted are these: hGAS6 200 ng/mL. The method, then:
MDA-MB-231 is a breast cancer cell.
MDA-MB-231 cells were inoculated to a 6-well plate (containing 10% FBS DMEM medium, […] cells per well) and adherently cultivated at 37° C., and 5% CO2 for 18 hrs. The cells were starved overnight, and then compound solutions with different concentrations were added. Compounds 1 and 2 had final concentrations of 1.1, 3.3 and 10 nM, and the remaining compounds had final concentrations of 1.1, 3.3, 10 and 30 nM. […] There was a medium containing 1‰DMSO in the negative control well. The cells were incubated at 37° C., and 5% CO2 for 60 min, and then hGAS6 (R&D, final concentration: 200 ng/mL) was added to each well. The cells were further incubated for 60 min, and then the total protein of the cells was extracted for Western Blot experiment. Gray analysis was performed on the results with Image J software, and IC50 values were calculated with GraphPad 5.0 software. The inhibitory activities of the compounds on cell pAxl were detected.
(In general: A western blot detects proteins with antibodies after separation by electrophoresis.)

In general, IC50 refers to the concentration at which inhibition is half-maximal. In the case of `COc1cc2nccc(Oc3ccc(NC(=O)c4cn(CC5CCOCC5)cc(-c5ccc(C)cc5)c4=O)nc3)c2cc1OC` [Compound 1, N-(5-((6,7-dimethoxyquinolin-4-yl)oxy)pyridin-2-yl)-4-oxo-1-((tetrahydro-2H-pyran-4-yl)methyl)-5-(p-tolyl)-1,4-dihydropyridin-3-carboxamide], the IC50 on Tyro-3 (h) was 37 nM; on MDA-MB-231 cell pAxl, less than 1.1 nM.
For `COc1cc2nccc(Oc3ccc(NC(=O)c4nn(CC5CCOCC5)cc(-c5ccc(C)cc5)c4=O)nc3)c2cc1OC` [Compound 2, N-(5-((6,7-dimethoxyquinolin-4-yl)oxy)pyridin-2-yl)-4-oxo-1-((tetrahydro-2H-pyran-4-yl)methyl)-5-(p-tolyl)-1,4-dihydropyridazin-3-carboxamide] the same measures were 13 nM and less than 1.1 nM.
In the same order, the values of `COc1cc2nccc(Oc3cnc(NC(=O)c4cn(CC5CCOCC5)cc(-c5ccc(C)cc5)c4=O)nc3)c2cc1OC` [Compound 4, N-(5-((6,7-dimethoxyquinolin-4-yl)oxy)pyrimidin-2-yl)-4-oxo-1-((tetrahydro-2H-pyran-4-yl)methyl)-5-(p-tolyl)-1,4-dihydropyridin-3-carboxamide] are 178 nM and less than 1.1 nM.
As to `COc1cc2nccc(Oc3ccc(NC(=O)c4cn(CC5CCS(=O)(=O)CC5)cc(-c5ccc(C)cc5)c4=O)nc3)c2cc1OC` [Compound 7, N-(5-((6,7-dimethoxyquinolin-4-yl)oxy)pyridin-2-yl)-1-((1,1-dioxotetrahydro-2H-thiopyran-4-yl)methyl)-4-oxo-5-(p-tolyl)-1,4-dihydropyridin-3-carboxamide], the IC50 at Tyro-3 (h) was 192 nM; against MDA-MB-231 cell pAxl, no more than 1.1 nM.
In the case of `COc1cc2nccc(Oc3ccc(NC(=O)c4cn(CC5CC[S+]([O-])CC5)cc(-c5ccc(C)cc5)c4=O)nc3)c2cc1OC` (centres unmarked) [Compound 8, N-(5-((6,7-dimethoxyquinolin-4-yl)oxy)pyridin-2-yl)-1-((1-oxotetrahydro-2H-thiopyran-4-yl)methyl)-4-oxo-5-(p-tolyl)-1,4-dihydropyridin-3-carboxamide], the values for the IC50 on Tyro-3 (h) and against MDA-MB-231 cell pAxl were 117 nM and no more than 1 nM, respectively.
`COc1cc2nccc(Oc3ccc(NC(=O)c4cn(CC5CCSCC5)cc(-c5ccc(C)cc5)c4=O)nc3)c2cc1OC` [Compound 9, N-(5-((6,7-dimethoxyquinolin-4-yl)oxy)pyridin-2-yl)-4-oxo-1-((tetrahydro-2H-thiopyran-4-yl)methyl)-5-(p-tolyl)-1,4-dihydropyridin-3-carboxamide]: the IC50 on Tyro-3 (h) was 28 nM; at MDA-MB-231 cell pAxl, less than 10 nM.
For `COc1cc2nccc(Oc3ccc(NC(=O)c4cc(-c5ccc(C)cc5)cn(CC5CCOCC5)c4=O)nc3)c2cc1OC` [Compound 13, N-(5-((6,7-dimethoxyquinolin-4-yl)oxy)pyridin 2yl)-2-oxo-1-((tetrahydro-2H-pyran-4-yl)methyl)-5-(p-tolyl)-1,2-dihydropyridin-3-carboxamide] the same measures were 94 nM and no more than 3.1 nM.
In the same order, the values of `COc1cc2nccc(Oc3cnc(NC(=O)c4nn(CC5CCOCC5)cc(-c5ccc(C)cc5)c4=O)nc3)c2cc1OC` [Compound 16, N-(5-((6,7-dimethoxyquinolin-4-yl)oxy)pyrimidin-2-yl)-4-oxo-1-((tetrahydro-2H-pyran-4-yl)methyl)-5-(p-tolyl)-1,4-dihydropyridazin-3-carboxamide] are 23 nM and less than 1.1 nM.
For `COc1cc2nccc(Oc3ccc(NC(=O)c4nn(C5CCOCC5)cc(-c5ccc(C)cc5)c4=O)cc3F)c2cc1OC` [Compound 28], the IC50 on Tyro-3 (h) was determined as 37 nM.
In the case of `Cc1ccc(-c2cn(C3CCOCC3)nc(C(=O)Nc3ccc(Oc4ccnc5cc6c(cc45)OCO6)cn3)c2=O)cc1` [Compound 29, N-(5-([1,3]dioxolo[4,5-g]quinolin-8-yloxy)pyridin-2-yl)-4-oxo-1-(tetrahydro-2H-pyran-4-yl)-5-(p-tolyl)-1,4-dihydropyridazin-3-carboxamide], at Tyro-3 (h), the IC50 is 321 nM.
On the same count and under the same terms, then `Cc1ccc(-c2cn(C3CCOCC3)nc(C(=O)Nc3ccc(Oc4ccnc5cc6c(cc45)OCCO6)cn3)c2=O)cc1` [Compound 30, N-(5-((2,3-dihydro-[1,4]dioxino[2,3-g]quinolin-9-yl)oxy)pyridin-2-yl)-4-oxo-1-(tetrahydro-2H-pyran-4-yl)-5-(p-tolyl)-1,4-dihydropyridazin-3-carboxamide], with 318 nM; and `COc1cc2nccc(Oc3cnc(NC(=O)c4cn(C5CCOCC5)cc(-c5ccc(F)cc5)c4=O)nc3)c2cc1OC` [Compound 31, N-(5-((6,7-dimethoxyquinolin-4-yl)oxy)pyrimidin-2-yl)-5-(4-fluorophenyl)-4-oxo-1-(tetrahydro-2H-pyran-4-yl)-1,4-dihydropyridin-3-carboxamide], with 78 nM; and `COc1cc2nccc(Oc3ccc(NC(=O)c4cc(CC5CCOCC5)cn(-c5ccc(F)cc5)c4=O)nc3)c2cc1OC` [Compound 32, N-(5-((6,7-dimethoxyquinolin-4-yl)oxy)pyridin-2-yl)-1-(4-fluorophenyl)-2-oxo-5-((tetrahydro-2H-pyran-4-yl)methy 1)-1,2-dihydropyridin-3-carboxamide], with 35 nM.
Regarding `COc1cc2nccc(Oc3cnc(NC(=O)c4nn(C5CCOCC5)cc(-c5ccc(F)cc5)c4=O)nc3)c2cc1OC` [Compound 33, N-(5-((6,7-dimethoxyquinolin-4-yl)oxy)pyrimidin-2-yl)-5-(4-fluorophenyl)-4-oxo-1-(tetrahydro-2H-pyran-4-yl)-1,4-dihydropyridazin-3-carboxamide], on Tyro-3 (h), the IC50 stood at 23 nM.
Same read-out and setting: then `COc1cc2nccc(Oc3ccc(NC(=O)c4nn(C5CCOCC5)cc(-c5ccc(F)cc5)c4=O)nc3)c2cc1OC` [Compound 34, N-(5-((6,7-dimethoxyquinolin-4-yl)oxy)pyridin-2-yl)-5-(4-fluorophenyl)-4-oxo-1-(tetrahydro-2H-pyran-4-yl)-1,4-dihydropyridazin-3-carboxamide], with 19 nM.
